Assay results as given in patent US20030105119A1, “Barbiturates as integrin antagonists and their use for treating inflammatory diseases” (priority 2001, published 2003).
pIC50: −log10 of the molar value.

Each compound was assayed against T1, α4β7 integrin binding to human MAdCAM-1-Ig (Homo sapiens, UniProt P13612+P26010) (assay: Adhesion inhibition assay (BCEF-labeled RPMI 8866 cells on huMAdCAM-1-Ig coated plates)).
T1 construct: endogenous in cells; host or cells: RPMI 8866 cells
T1 sequence (P13612 34-1032): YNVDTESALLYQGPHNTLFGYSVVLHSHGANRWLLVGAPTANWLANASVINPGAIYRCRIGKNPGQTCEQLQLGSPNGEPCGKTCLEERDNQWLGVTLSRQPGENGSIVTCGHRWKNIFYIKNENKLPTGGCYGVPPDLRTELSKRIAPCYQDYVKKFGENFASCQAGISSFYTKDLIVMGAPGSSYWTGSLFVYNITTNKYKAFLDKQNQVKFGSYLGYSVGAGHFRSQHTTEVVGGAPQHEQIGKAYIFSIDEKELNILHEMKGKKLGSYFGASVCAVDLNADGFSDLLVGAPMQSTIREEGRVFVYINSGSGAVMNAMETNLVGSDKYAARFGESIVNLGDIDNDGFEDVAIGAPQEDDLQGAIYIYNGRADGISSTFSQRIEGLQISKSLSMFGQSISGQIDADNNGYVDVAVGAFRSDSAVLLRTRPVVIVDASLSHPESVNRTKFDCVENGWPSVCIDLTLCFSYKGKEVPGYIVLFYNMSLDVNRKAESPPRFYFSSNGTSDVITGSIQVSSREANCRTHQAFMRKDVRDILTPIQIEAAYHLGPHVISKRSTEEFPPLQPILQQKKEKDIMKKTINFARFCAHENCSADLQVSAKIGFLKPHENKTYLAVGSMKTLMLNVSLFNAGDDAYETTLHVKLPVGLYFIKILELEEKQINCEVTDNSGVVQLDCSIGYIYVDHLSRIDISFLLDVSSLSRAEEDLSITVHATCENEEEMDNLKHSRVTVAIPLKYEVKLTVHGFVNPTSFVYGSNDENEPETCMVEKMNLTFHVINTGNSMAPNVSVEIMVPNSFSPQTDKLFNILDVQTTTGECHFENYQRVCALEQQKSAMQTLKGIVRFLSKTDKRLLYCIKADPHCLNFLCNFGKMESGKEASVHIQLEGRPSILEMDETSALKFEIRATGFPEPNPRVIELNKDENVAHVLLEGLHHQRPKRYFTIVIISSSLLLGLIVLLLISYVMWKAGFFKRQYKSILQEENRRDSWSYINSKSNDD
T1 sequence (P26010 20-798): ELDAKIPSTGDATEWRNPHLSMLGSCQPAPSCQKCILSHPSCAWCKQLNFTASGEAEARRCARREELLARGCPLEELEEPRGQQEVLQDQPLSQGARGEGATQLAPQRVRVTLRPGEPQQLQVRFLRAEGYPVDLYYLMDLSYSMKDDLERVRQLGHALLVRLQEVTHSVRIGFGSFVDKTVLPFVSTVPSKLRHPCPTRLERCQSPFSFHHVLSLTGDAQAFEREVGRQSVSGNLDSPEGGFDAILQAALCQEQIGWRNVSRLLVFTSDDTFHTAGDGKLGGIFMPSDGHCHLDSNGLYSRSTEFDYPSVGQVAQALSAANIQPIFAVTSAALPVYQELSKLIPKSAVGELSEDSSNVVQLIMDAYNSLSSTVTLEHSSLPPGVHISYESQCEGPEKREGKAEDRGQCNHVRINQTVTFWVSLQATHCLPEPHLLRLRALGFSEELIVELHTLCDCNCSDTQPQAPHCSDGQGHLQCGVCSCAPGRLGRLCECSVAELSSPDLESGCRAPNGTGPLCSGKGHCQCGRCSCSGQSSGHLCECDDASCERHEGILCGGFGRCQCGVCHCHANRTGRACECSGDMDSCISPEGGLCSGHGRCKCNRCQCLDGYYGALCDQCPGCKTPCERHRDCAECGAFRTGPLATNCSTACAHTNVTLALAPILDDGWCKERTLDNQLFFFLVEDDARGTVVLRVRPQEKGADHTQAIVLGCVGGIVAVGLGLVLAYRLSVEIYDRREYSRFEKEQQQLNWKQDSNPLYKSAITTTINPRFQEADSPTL
Assay type: cell-based
Procedure: Biological Results. Adhesion Inhibition Assay Method
RPMI 8866 cells are used in this assay. They are available in a medium with 10% FBS, 200 mM L-Glutamine, and penicillin/streptomycin 10x.
1. Coat plates (costar 3590) with a human MAdCAM-1-Ig dilution prepared in carbonate buffer (25 ng of huMAdCAM/well in 50 μl carbonate buffer) overnight at 4° C. Carbonate buffer is NaHCO3 3.44 g, Na2CO3 1.72 g, water qs 200 ml; adjust pH to 9.5, filter thru 0.2 μm and store at 4° C.
2. Wash plates with the plate washer (BioTeck Instruments EL404) once, using settings for washing cell rinse, with the following parameters:
3. Block wells with blocking buffer (10% calf serum, PBS), 100 μl/well, 37° C., 3 h.
4. Wash plates with the plate washer once, using settings for washing cell rinse. Use plates within 10 min after washing.
5. Label the RPMI 8866 cells with 2′,7′-bis-(2-carboxyethyl)-5-6-carboxy-fluorescein acetoxymethyl ester (BCEF-AM) as follows:
spin down the cells at 1500 rpm, 10 min. Decant supernatant. Resuspend cells at 4×10^6 cells/ml sterile PBS in 50 ml polypropylene tube. Add 2 μl BCEF-AM per ml of resuspended cells. Mix well and wrap tube in aluminum foil (to exclude light). Place cells at 37° C. for 30 min to label. Spin labeled cells down (while covered in aluminum foil) at 1500 rpm, 10 min. Decant supernatant. Resuspend labeled cells in 25 ml assay buffer and centrifuge at 1500 rpm, 10 min. Resuspend labeled cells in assay buffer at 2.5×10^6 cells/ml.
(assay buffer: HBSS, penicillin/streptomycin 10×, MnCl2 0.5 mM, Hepes 25 mM, pH=7.2)
6. Prepare dilutions of positive control: LDP-02 (α4β7 integrin blocking antibody) in assay buffer at 250 μg/ml and compounds of the invention in DMSO for addition to assay plates.
7. To polypropylene plate, add, with Multimek:
2.2 μl/well of 100% DMSO or compound dilutions;
147.8 μl/well of assay buffer to all wells;
50 μl/well of BCEF-labeled RPMI 8866 cells (at 2.5×10^6 cells/ml assay buffer);
Mix well and add 180 μl of the mix to huMAdCAM-1-Ig coated plate.
8. Read plate in fluorescent plate reader (excite at 485 nm, read at 535 nm) and adjust the gain (total signal).
9. Wrap plates in aluminum foils and incubate at 25° C. for 30 min.
10. Wash plates with the plate washer using settings for washing cell rinse.
11. Read plate in fluorescent plate reader (excite at 485 nm, read at 535 nm).
The following Table 2 summarizes the results for some of the compounds and indicates the IC50 in μM.

Compared with `O=C1NC(=O)N(c2cccc3ccccc23)C(=O)/C1=C\c1c[nH]c2ccccc12` [Example 1, 5-(1H-Indol-3-ylmethylene)-naphthalen-1-yl-pyrimidine-2,4,6-trione], `Cn1cc(/C=C2/C(=O)NC(=O)N(c3cccc4ccccc34)C2=O)c2ccccc21` [Example 2, 5-(1-Methyl-1H-indol-3-ylmethylene)-1-naphthalen-1-yl-pyrimidine-2,4,6-trione] is 0.36 log units lower in pIC50: 6.39 for the first, 6.03 for the second. The first is the more potent here.

`Cc1ccccc1N1C(=O)NC(=O)/C(=C/c2cn(C)c3ccccc23)C1=O` [Example 15, 5-(1-Methyl-1H-indol-3-ylmethylene)-1-o-tolyl-pyrimidine-2,4,6-trione] and `Cc1ccccc1N1C(=O)NC(=O)/C(=C/C=C/c2ccccc2)C1=O` [Example 35, 5-(3-Phenyl-allylidene)-1-o-tolyl-pyrimidine-2,4,6-trione] are within 0.2 log units of each other in pIC50: 5.64 for the first, 5.58 for the second.

First: Cc1cccc(N2C(=O)NC(=O)/C(=C\C=C\c3ccccc3)C2=O)c1 [Example 16, 5-(3-Phenyl-allylidene)-1-m-tolyl-pyrimidine-2,4,6-trione]
Second: Cc1ccc(N2C(=O)NC(=O)/C(=C\C=C\c3ccccc3)C2=O)cc1 [Example 42, 5-(3-Phenyl-allylidene)-1-p-tolyl-pyrimidine-2,4,6-trione]
The pIC50 of the first is 0.46 log units higher: 6.05 for the first, 5.59 for the second. The first is the more potent here.

`Cc1cccc(N2C(=O)NC(=O)/C(=C/c3c[nH]c4ccccc34)C2=O)c1` [Example 17, 5-(1H-Indol-3-ylmethylene)-1-m-tolyl-pyrimidine-2,4,6-trione] and `O=C1NC(=O)N(c2cccc(Cl)c2)C(=O)/C1=C/c1c[nH]c2ccccc12` [Example 37, 1-(3-Chloro-phenyl)-5-(1H-indol-3-ylmethylene)-pyrimidine-2,4,6-trione] are within 0.2 log units of each other in pIC50: 5.53 for the first, 5.56 for the second.

`O=C1NC(=O)N(c2ccccc2Cl)C(=O)/C1=C\c1c[nH]c2ccccc12` [Example 18, 1-(2-Chloro-phenyl)-5-(1H-indol-3-ylmethylene)-pyrimidine-2,4,6-trione] and `O=C1NC(=O)N(c2ccccc2Cl)C(=O)/C1=C\C=C\c1ccccc1` [Example 43, 1-(2-Chloro-phenyl)-5-(3-phenyl-allylidene)-pyrimidine-2,4,6-trione] are within 0.2 log units of each other in pIC50: 5.60 for the first, 5.72 for the second.

Going from `Cc1cccc(N2C(=O)NC(=O)/C(=C\c3ccc[nH]3)C2=O)c1` [Example 24, 5-(Pyrrol-2-ylmethylene)-1-m-tolyl-pyrimidine-2,4,6-trione] to `O=C1NC(=O)N(Cc2cccnc2)C(=O)/C1=C/c1c[nH]c2ccccc12` [Example 49, 5-(1H-indol-3-ylmethylene)-1-pyridin-3-ylmethyl-pyrimidine-2,4,6-trione], the pIC50 rises from 5.53 to 5.89 (0.36 log units).

`O=C1NC(=O)N(c2cccc3cccnc23)C(=O)/C1=C/C=C/c1ccccc1` [Example 51, 5-(3-Phenyl-allylidene)-1-quinolin-8-yl-pyrimidine-2,4,6-trione] was tested, and the pIC50 was 5.57.
